Results reported in ChEMBL document CHEMBL1201862, “PubChem BioAssay data set” (2004).
Where a name gives a salt, the structure may show the parent alone. Calls of active or inactive are those of the source.

Tests used:
[1] = toxicity toward HepG2 liver cells – cell-based, plate reader, cherry-pick, antagonist series, cytotoxicity control, dose response (AID 743416); assay type: functional
[2] = blockade of melanocortin 4 receptor signaling – cell-based, plate reader, cherry pick, counter-screen for LGR2 antagonist project, dose response (AID 743444); assay type: functional;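 further: transfected HEK 293 cells stimulated with alpha-MSH peptide; potency of inhibitors of the alpha-MSH evoked signal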
BJ [3] = test: BJ-TERT fibroblast viability loss – cell-based, RAS-independent, luminescence, dose response (AID 1933); assay type: functional; details: Homo sapiens
[4] = blockers of bursicon-stimulated LGR2 cAMP reporter – cell-based, HEK293, CRE-luciferase reporter, cherry pick, set 2, dose response (AID 743343); assay type: functional;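 further: transfected cells were stimulated with diluted bursicon conditioned medium after compound addition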
[5] = alpha-synuclein stem-loop luciferase translation blockers – H4 neuroglioma cells, luminescence, confirmation (AID 1988); assay type: functional, cell-based
[6] = viability loss in HEK293 cells – cell-based, plate reader, cherry-picked samples, cytotoxicity control, dose response (AID 743446); assay type: functional
[7] = DRD fibroblast viability loss – cell-based, non-viral oncogenic, luminescence, dose response (AID 1934); assay type: functional; details: Homo sapiens
BJ [8] = test: BJ-TERT-LT-ST fibroblast viability loss – cell-based, RAS-independent, luminescence, dose response (AID 1935); assay type: functional; details: Homo sapiens;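 further: BJ fibroblasts immortalized with TERT plus LT and ST oncogenes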
[9] = Luminescence Cell-Based Dose Response HTS to Identify Inhibitors of 5'UTR Stem-Loop Driven Prion Protein mRNA Translation in H4 Neuroglioblastoma Cells. [Related pubchem assays: 1827 (Project Summary), 1813 (Primary HTS)]; assay type: functional
BJ [10] = test: cells; assay type: functional, cell-based; details: Homo sapiens
[11] = A549 cell cytotoxicity, dose response, cytotoxicity control, plate reader, cherry-pick, antagonist series (AID 743412); assay type: functional, cell-based
Major prion protein = Major prion protein (Homo sapiens, UniProt P04156); assay type: functional, cell-based
[12] = T. cruzi growth inhibition in host cells, dose response, cell-based, plate reader, dry powder, set 2 (AID 652275); assay type: functional
fMet-Leu-Phe receptor = molecular target: T1, fMet-Leu-Phe receptor (Homo sapiens, UniProt P21462); test: formyl peptide receptor binders – dose response (AID 519); assay type: functional
T1 sequence (P21462 whole entry): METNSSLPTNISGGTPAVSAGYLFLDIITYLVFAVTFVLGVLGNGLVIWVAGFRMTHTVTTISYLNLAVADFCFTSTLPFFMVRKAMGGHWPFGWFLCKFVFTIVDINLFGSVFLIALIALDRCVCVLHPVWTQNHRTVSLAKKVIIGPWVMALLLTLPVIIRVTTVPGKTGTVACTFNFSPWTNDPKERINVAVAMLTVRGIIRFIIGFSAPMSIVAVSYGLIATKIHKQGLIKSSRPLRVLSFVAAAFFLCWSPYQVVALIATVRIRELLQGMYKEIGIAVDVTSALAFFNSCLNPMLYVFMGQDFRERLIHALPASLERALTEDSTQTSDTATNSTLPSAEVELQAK

Paired box protein Pax-8 = Paired box protein Pax-8 (Homo sapiens, UniProt Q06710); test: PAX8 transcriptional activity inhibition in RMG-I – RMG-I cells, luciferase, cherry-pick, dose response (AID 687027); assay type: functional, cell-based;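 further: luciferase reporter driven by Pax8 target thyroperoxidase promoter measured by SteadyGlo luminescence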
[13] = viability loss in CEM21 cells – cell-based, CellTiter-Glo luminescence, cherry-picked, cytotoxicity control for viral fusion inhibitor project, dose response (AID 652042); assay type: functional;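 further: potency for signal decrease meaning cytotoxicity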
[14] = HIV-1 AD8 envelope cell-cell fusion blockers – cherry-pick, dose response (AID 652062); assay type: functional, cell-based;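 further: luciferase signal from cell-cell fusion driven by HIV-1 clade B AD8 Env; potency is for inhibitors of fusion seen as a drop in luminescence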
[15] = blockers of HIV-1 ZM109 envelope-driven cell-cell fusion – HeLa effector, CEM target cells, luciferase, cherry-pick, dose response (AID 652058); assay type: functional, cell-based;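 further: luciferase signal from HIV-1 Env mediated cell-cell fusion of effector and target cells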
[16] = off-target signal loss in HeLa-CEM21 co-culture – HeLa F-luc CTL cells, cherry-picked, counter-screen for HIV-1 Env fusion inhibitor project, dose response (AID 652040); assay type: functional, cell-based;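 further: potency for signal decrease marking cytotoxic or nonspecific inhibition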
[17] = blockers of HIV-1 envelope-mediated cell-cell fusion – cherry-pick, dose response (AID 652057); assay type: functional, cell-based
[18] = molecular target: T2, COUP transcription factor 2 (Homo sapiens, UniProt P24468); test: Luminescence-based cell-based high throughput dose response assay to identify inhibitors of COUP-TFII (NR2F2).; assay type: functional;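 further: HEK293 cells transiently cotransfected with COUP-TFII expression vector and reporter; luciferase reporter luminescence driven by COUP-TFII from the pX2-168 reporter plasmid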
T2 sequence (P24468 whole entry): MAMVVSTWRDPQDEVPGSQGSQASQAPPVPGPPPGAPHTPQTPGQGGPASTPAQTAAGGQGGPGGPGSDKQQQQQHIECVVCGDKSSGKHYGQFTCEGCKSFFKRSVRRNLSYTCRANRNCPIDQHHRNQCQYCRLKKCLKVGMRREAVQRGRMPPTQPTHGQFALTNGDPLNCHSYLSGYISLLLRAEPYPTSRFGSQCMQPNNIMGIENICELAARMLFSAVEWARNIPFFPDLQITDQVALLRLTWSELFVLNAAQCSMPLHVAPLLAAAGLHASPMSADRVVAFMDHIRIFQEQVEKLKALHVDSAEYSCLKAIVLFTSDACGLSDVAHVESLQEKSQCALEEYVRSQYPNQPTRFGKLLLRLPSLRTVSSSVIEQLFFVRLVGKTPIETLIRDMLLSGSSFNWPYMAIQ

[19] = molecular target: T3, Heat shock factor protein 1 (Mus musculus, UniProt P38532); test: decrease of HSF1-responsive luciferase luminescence – cell-based, NIH3T3, dose retest, confirmation (AID 2382); assay type: functional;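 further: NIH3T3 fibroblasts with HSF1-driven luciferase reporter stressed by proteasome inhibitor MG132; luminescence from HSF1-driven luciferase expression after 8 hours of MG132 stress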
T3 sequence (P38532 whole entry): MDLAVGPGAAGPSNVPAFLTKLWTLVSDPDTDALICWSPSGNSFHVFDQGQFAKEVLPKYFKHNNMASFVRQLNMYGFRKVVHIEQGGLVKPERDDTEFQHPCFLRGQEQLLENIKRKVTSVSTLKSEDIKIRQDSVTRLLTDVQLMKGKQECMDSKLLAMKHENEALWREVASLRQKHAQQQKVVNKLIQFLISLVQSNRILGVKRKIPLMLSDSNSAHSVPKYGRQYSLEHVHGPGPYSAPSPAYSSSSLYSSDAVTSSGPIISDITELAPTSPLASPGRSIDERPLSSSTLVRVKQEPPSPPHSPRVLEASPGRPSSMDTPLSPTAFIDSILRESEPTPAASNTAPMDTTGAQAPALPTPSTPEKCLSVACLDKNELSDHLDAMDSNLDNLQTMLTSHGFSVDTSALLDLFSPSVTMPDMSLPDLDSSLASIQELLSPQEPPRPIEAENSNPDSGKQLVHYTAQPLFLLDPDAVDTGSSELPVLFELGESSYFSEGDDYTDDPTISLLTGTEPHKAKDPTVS

[20] = cytotoxicity toward Colo320 cells – cell-based, CellTiter-Glo luminescence, IC50, dose response (AID 1117334); assay type: functional; details: COLO 320
[21] = cytotoxicity toward HCT116 cells – cell-based, CellTiter-Glo luminescence, IC50, dose response (AID 1117332); assay type: functional; details: HCT-116
[22] = CellTiter-Glo luminescence survival assay, SW480 colon tumor line, concentration-response curve, half-maximal inhibitory concentration (AID 1117338); assay type: functional
[23] = Reduced DLD-1 viability, concentration-response, CellTiter-Glo luminescence (AID 1117352); assay type: functional
[24] = cytotoxicity toward HT-29 cells – cell-based, CellTiter-Glo luminescence, IC50, dose response (AID 1117330); assay type: functional
[25] = SNU-C1 cell viability reduction, dose response, CellTiter-Glo luminescence (AID 1117323); assay type: functional, cell-based
[26] = RKO cell viability reduction, dose response, CellTiter-Glo luminescence (AID 1117322); assay type: functional
Vero = test: viability loss in Vero cells – cell-based, plate reader, cherry-pick samples, cytotoxicity control, dose response (AID 687020); assay type: functional; details: Chlorocebus sabaeus
Estrogen receptor beta = Estrogen receptor beta (Homo sapiens, UniProt Q92731);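 further: recombinant ER-beta bound to coactivator SRC1 peptide in presence of estradiol agonist; inhibitors block coactivator peptide binding and lower the FRET signal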

Cc1cccc(NC(=O)c2onc3c2CCCC3)n1
AC50 [1]: 19.4 µM (active) | AC50 [2]: 5.51 µM (active) | EC50 (BJ [3]): 18 µM (active) | AC50 [4]: 3.23 µM (active) | EC50 [5]: 6.78 µM (active) | AC50 [6]: 15.9 µM (active) | EC50 [7]: 13.3 µM (active) | EC50 (BJ [8]): > 150 µM (inconclusive) | EC50 [9]: 8.8 µM (active) | EC50 (BJ [10]): 15 µM (active) | AC50 [11]: 19.6 µM (active)

CC(=O)c1sccc1NC(=O)c1ccccc1C(=O)O
IC50 (cells): > 138 µM (inactive) | IC50 (Major prion protein): 3.09 µM (active)

CC(C)N1C[C@@H](CN(C)Cc2ccc(Cl)cc2)Oc2c(NC(=O)c3ccncn3)cccc2C1=O
AC50 [12]: 5.48 nM (active)

CCc1c(C)[nH]c2c(C#N)c(C)nn2c1=O
Ki (fMet-Leu-Phe receptor): 21.7 µM (inactive)

Nc1ncnc2c(C3OC(CO)C(O)C3O)scc12 (stereo not given)
AC50 (Paired box protein Pax-8): < 260 nM (active) | AC50 [13]: < 0.26 µM (active) | AC50 [14]: 3.45 µM (active) | AC50 [15]: 2.04 µM (active) | AC50 [16]: 3.78 µM (active) | AC50 [17]: 0.322 µM (active)

COCCn1c(C)c(C)c2c(NCCc3ccccc3)ncnc21
AC50 [2]: 9.75 µM (active) | AC50 [4]: 6.87 µM (active) | AC50 [6]: > 52 µM (inactive) | IC50 [18]: 40.1 µM (inactive) | EC50 [19]: < 160 nM (active)

CCN(CCO)CCCC(C)Nc1ccnc2cc(Cl)ccc12 (stereo not given) [HYDROXYCHLOROQUINE SULFATE]
IC50 [20]: > 20 µM (inactive) | IC50 [21]: > 20 µM (inactive) | IC50 [22]: > 20 µM (inactive) | IC50 [23]: > 20 µM (inactive) | IC50 [24]: > 20 µM (inactive) | IC50 [25]: > 20 µM (inactive) | IC50 [26]: > 20 µM (inactive)

O=C(O)c1cc(=O)c2c(OCC(O)COc3cccc4oc(C(=O)O)cc(=O)c34)cccc2o1 [CROMOLYN SODIUM]
AC50 (Vero): 34.3 µM (active)

Cc1cccc(C)c1N(CC(O)Cn1c2ccccc2c2ccccc21)S(C)(=O)=O (stereo not given)
AC50 [13]: 60.4 µM (active) | AC50 [16]: > 70 µM (inactive) | AC50 [17]: 17.1 µM (active)

O=c1[nH]c2ccccc2c(=O)n1Cc1ccco1
IC50 (Estrogen receptor beta): > 50 µM (not active)

N=C(NOC(=O)COc1ccc2ccccc2c1Br)c1ccccn1
IC50 (cells): > 138 µM (inactive) | IC50 (Major prion protein): 4.71 µM (active)
